The structures appear in SMILES notation.

As a reminder, the IC50 is the midpoint of a concentration-inhibition curve.

One assay concerns the target 92 kDa gelatinase (MMP9) (Homo sapiens, UniProt P14780). Nature of the assay: MMP9 enzyme inhibition assay (fluorogenic peptide substrate McaPLGLDpaAR). Format: biochemical. Particulars: recombinant human 92 kDa gelatinase, 37° C., 2 hours.
For the next assay, the target named is T1, collagenase (MMP1) (Homo sapiens, UniProt P03956).
T1 sequence (P03956 100-469): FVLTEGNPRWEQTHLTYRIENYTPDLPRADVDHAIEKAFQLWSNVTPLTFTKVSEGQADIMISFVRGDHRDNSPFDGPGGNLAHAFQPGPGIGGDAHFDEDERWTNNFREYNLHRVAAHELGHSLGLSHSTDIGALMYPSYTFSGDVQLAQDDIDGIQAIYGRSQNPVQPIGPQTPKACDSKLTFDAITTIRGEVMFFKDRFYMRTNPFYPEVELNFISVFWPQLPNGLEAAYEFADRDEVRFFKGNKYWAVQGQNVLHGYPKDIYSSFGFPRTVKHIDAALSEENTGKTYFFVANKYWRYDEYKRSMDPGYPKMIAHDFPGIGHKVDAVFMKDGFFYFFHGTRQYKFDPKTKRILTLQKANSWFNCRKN
Nature of the assay: MMP1 enzyme inhibition assay (fluorogenic peptide substrate McaPLGLDpaAR). Format: biochemical. The note with it: protocol as for MMP9 assay.

The test system of assay [1] is IL2-induced lymphocyte recruitment. Nature of the assay: IL2-induced peritoneal recruitment of lymphocytes. Format: in vivo, C3H/HEN mice. The note with it: mice, 15 min prior to IL2, cells counted 24 hours after IL2. The protocol: Administration of IL2 intraperitoneally causes migration of lymphocytes into the intraperitoneal cavity. This is a model for the cellular migration that occurs during inflammation.
C3H/HEN mice (Elevage Janvier, France) were intraperitoneally injected with IL2 (Serono Pharmaceutical Research Institute, 20 μg/kg, in saline). Compounds of the invention were suspended in 0.5% carboxymethylcellulose (CMC)/0.25% tween-20 and were administered by sc or po route (10 ml/kg) 15 min prior to administration of IL2.
Twenty-four hours after administration of IL2, peritoneal white blood cells were collected by 3 successive lavages of the peritoneal cavity with 5 ml phosphate buffered saline (PBS)-1 mM EDTA (+4° C.). The suspension was centrifuged (1700 g×10 min at +4° C.). The resulting pellet was suspended in 1 ml PBS-1 mM EDTA.
Lymphocytes were identified and counted using a Beckman/Coulter counter.
The animals were divided into 5 groups (6 mice each group):
Group 1: (baseline) received 0.5% CMC/0.25% tween-20 (vehicle of compound of the invention) and saline (vehicle of IL2); Group 2: (control IL2) received 0.5% CMC/0.25% tween-20 and injection of IL2; Group 3: Experimental group (Compound of the invention Dose 1) received a compound of the invention and injection of IL2; Group 4: Experimental group (Compound of the invention Dose 2) received a compound of the invention and injection of IL2; Group 5: Experimental group (Compound of the invention Dose 3) received a compound of the invention and injection of IL2; Group 6: Reference group received reference compound dexamethasone and injection of IL2
Inhibition of lymphocyte recruitment was calculated as follows:
Where Ly 1=Number of lymphocytes in group 1 (E3/μl), Ly 2=Number of lymphocytes in group 2 (E3/μl), Ly X=Number of lymphocytes in group X (3-5) (E3/μl)
The dose of compound of the invention required to inhibit lymphocyte recruitment by 50% (ID50) was calculated using a curve-fitting routine.

Chain of 92 kDa gelatinase (MMP9) (P14780 107-707 limits assumed): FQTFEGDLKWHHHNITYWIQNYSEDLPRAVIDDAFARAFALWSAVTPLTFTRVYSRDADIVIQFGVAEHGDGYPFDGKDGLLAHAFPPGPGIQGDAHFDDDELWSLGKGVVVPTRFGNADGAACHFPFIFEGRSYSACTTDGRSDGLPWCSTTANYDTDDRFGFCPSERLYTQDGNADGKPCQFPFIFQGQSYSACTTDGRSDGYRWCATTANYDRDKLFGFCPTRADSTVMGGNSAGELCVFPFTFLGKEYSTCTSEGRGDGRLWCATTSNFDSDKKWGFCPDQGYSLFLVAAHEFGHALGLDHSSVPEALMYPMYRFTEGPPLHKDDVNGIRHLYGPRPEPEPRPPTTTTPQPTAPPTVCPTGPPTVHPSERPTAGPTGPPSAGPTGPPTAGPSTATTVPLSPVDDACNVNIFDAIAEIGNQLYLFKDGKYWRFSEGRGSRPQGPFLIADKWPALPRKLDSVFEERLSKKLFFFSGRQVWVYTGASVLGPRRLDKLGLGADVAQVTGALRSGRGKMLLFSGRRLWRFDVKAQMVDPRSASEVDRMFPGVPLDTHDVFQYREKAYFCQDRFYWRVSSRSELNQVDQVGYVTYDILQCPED

For `CC(C)C[C@@H](C(=O)N[C@H](c1noc(-c2cccs2)n1)C(C)(C)C)[C@H](O)C(=O)NO` [Example 13, 2S-Hydroxy-3R-[1S-(5-thiophen-2-yl-[1,2,4]oxadiazol-3-yl)-2,2-dimethyl-propylcarbamoyl]-5-methyl Hexanohydroxamic Acid], the IC50 on 92 kDa gelatinase (MMP9) and at collagenase (MMP1) was 100 to 1000 nM in each case. The “ID50 for inhibition of IL2-induced peritoneal recruitment of lymphocytes” value in assay [1] (Oral route) turned out to be 1 mg/kg; in assay [1] (Subcutaneous route), 0.1 mg/kg.

(Values after patent publication US20100035943A1, “Oxa-and thiadiazoles and their use as metalloproteinase inhibitors” (VERNALIS (OXFORD) LTD, priority 2002, published 2010).)
